Test results: patent publication US12637410B2, “Vesicular monoamine transporter-2 ligands and their use in the treatment of psychostimulant abuse” (priority 2016, dated 2026)
Like-named read-outs stand apart in the source and are kept apart here.

How the values were obtained:
[1] = Pharmacokinetic assays in mice (iv, po, sc); format: in vivo
[2] = Microsomal assays, rat liver microsomes; settings: for half-life at 0.08 µM / CLint scaled at 0.08 µM: female, Sprague-Dawley, rat, pH 7.4; for Microsomal stability assays: Species/Half-life (hr) Rat: rat liver microsomes
Method: (§1) Each plate holds triplicate samples of two controls (0.4 mM) and up to 14 compounds (0.08 mM) in rat and human liver microsomes. Aliquots of each well of the plate (175 μl of each well) were transferred from the master plate into 5 assay plates. […] NADPH regenerating system solution A (6.05 ml, Fisher Scientific, #NC9255727) was combined with NADPH regenerating system solution B (1.21 ml, Fisher Scientific, #NC9016235) in potassium phosphate buffer (15.8 ml, 0.1 M, pH 7.4, 37° C.). The resulting NADPH solution (43.8 μl) was added to each well of all the 96-well assay plates and mixed with pipette briefly making the final protein and compound concentrations respectively: 0.5 mg/ml, 0.08 μM (0.4 μM for controls). Plates were sealed, and all plates except the 0-hr plate were incubated at 37° C., shaken at a speed of 60 rpm. A single assay plate was tested at each time point: 0.5 hr, 1 hr, 2 hr, and 4 hr. At each time point, 437.5 μL of pre-cooled internal standard was added each well of the plate to quench the reaction. […] 120 μl supernatant was transferred to a 96-well plate, centrifuged again and analyzed by UPLC-MS (Waters Inc., Milford, MA). The compounds and internal standard were detected by selected ion recording (SIR).
(§2) The amount of material was measured as a ratio of peak area to the internal standard and graphed. Using the slope from the initial linear portion of this curve, the degradation rate constant is calculated using equation [1]. The rate constant was then used to calculate the compounds half-life in plasma using equation [2].

[3] = molecular target: T1, VMAT2 (Rattus norvegicus, UniProt Q01827); experiment: [3H]Dopamine ([3H]DA) uptake assay, vesicular preparation; format: biochemical
T1 construct: from tissue; host or cells: rat striatum, isolated synaptic vesicles
T1 sequence (Q01827 whole entry): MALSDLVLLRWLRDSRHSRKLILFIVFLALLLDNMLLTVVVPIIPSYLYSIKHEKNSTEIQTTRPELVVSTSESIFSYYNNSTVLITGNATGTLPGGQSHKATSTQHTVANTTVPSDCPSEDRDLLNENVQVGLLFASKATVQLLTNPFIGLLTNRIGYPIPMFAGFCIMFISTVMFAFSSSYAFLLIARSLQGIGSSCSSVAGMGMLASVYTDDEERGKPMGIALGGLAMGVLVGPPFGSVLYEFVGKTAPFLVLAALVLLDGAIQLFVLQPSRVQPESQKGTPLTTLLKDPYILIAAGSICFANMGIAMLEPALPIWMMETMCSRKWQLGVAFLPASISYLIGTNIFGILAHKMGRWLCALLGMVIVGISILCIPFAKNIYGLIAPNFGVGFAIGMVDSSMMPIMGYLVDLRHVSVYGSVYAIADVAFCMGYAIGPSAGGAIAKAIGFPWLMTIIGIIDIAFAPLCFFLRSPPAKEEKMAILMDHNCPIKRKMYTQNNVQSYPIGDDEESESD

[4] = Microsomal assays, human liver microsomes; settings: for half-life at 0.08 µM: both, human, pH 7.4; for Microsomal stability assays: Species/Half-life (hr) Human: human liver microsomes
Method: as §1, §2

[5] = in vitro; settings: both, human, pH 7.4
Method: as §1, §2

[6] = in vitro; settings: female, Sprague-Dawley, rat, pH 7.4
Method: as §1, §2

[7] = system: METH-stimulated locomotor activity; experiment: METH-stimulated locomotor activity in rats; format: in vivo, rat; settings: s.c.
Method: A series of VMAT2 inhibitors were synthesized and evaluated for their activity at VMAT2, dopamine transporters (DAT), and serotonin transporters (SERT) using rat striatum, hERG channels expressed by HEK-293 cells, and for their effect on METH-stimulated locomotor activity in rats.
The compounds of the invention were also evaluated for their effect on METH-stimulated locomotor activity in rats.

[8] = Pharmacokinetic assays in rats (iv, po, sc); settings: for Bioavail. (F %) Frat / bioavailability: rat; for bioavailability: male, Sprague-Dawley, in vivo
Method: (§3) Animals: Oral and intravenous dose pharmacokinetic studies were conducted in tandem in age matched female Swiss Webster mice and/or age matched male Sprague-Dawley rats purchased from Envigo-Harlan. Animals were housed in IVC cages with wood chip bedding and given food and water ad libitum.
(§4) Dose Formulation and Administration Volumes: Hydrochloric acid salts or free base forms were used for formulation.
(§5) Pharmacokinetic Studies: Groups of 6 animals were dosed with formulated test compound by bolus lateral tail vein injection (iv), by oral gavage (po), or by subcutaneous injection (sc) into left hind flank. […] Whole blood samples were collected into microtubes and centrifuged at 4000×g for 2 min. Plasma supernatants were collected and immediately frozen on dry ice, then transferred to a −80° C. freezer to await processing for LC-MS/MS analysis. Typical dose rates were 2 mg/kg iv, 10 mg/kg po, and <30 mg/kg sc.
(§6) Plasma calibrators (usually 0.25, 0.5, 1, 5, 15, 30, 100, 400, 700, and 1000 ng/mL) were generated by the addition of 5 μL of appropriate spiking solution into 100 μL blank plasma followed by vortex mixing. Plasma QC samples (usually 0.75, 25, 500, and 850 ng/mL) were prepared in a similar manner using an independent 2nd analyte stock solution. Calibrators and QCs were stored alongside experimental samples at −80° C. until analysis.
(§7) Analyte and internal standard contained in 5 μL sample injections (15° C. temp.; 1.5 mL 0.1% formic acid in MeOH or 1:1 MeOH: isopropanol injector rinse; 10 sec rinse dip time) were eluted from a guard-protected (2.7 μL, 3×5 mm) Agilent Poroshell 120 EC-C18 (2.7 μL, 3×50 mm; oven temp. 40° C.) analytical column with a 0.1% formic acid in water (mobile Phase-A): 0.1% formic acid in acetonitrile (mobile Phase-B) gradient. […] Positive-mode ESI Turbo V® source and MS gas, temperature, and probe settings were optimized for 0.4 mL flow rate at CUR=35/ISV=4500/TEM=550/GS1=65/GS2=65/CAD=10 with the probe position=7/0.5 horizontal/vertical. […] ISTD voltage potentials were set at DP=70, EP=10, CE=35 and CXP=6. Sample sequences consisted of single randomized experimental sample injections flanked by sets of blanks, calibrators and QCs with QCs interspersed, as needed, to maintain >5% total QC to experimental sample occurrence. High QCs (5,000 and 10,000 ng/mL) were inserted at end of sequence prior to second calibrator injections. Calibration curves were typically constructed by weighted (1/x^2) non-linear regression analysis of analyte/ISTD concentration ratios to analyte/ISTD peak area ratios using AB SciexMultiQuant software (Ver 3.0.31721.0).

[9] = molecular target: T2, hERG channel (Homo sapiens, UniProt Q12809); experiment: [3H]Dofetilide binding assay, HEK-293 cell membrane preparation; settings: hERG Binding: Mean Ki (nM)
T2 construct: purchased; host or cells: HEK-293 cells stably expressing hERG (membranes)
T2 sequence (Q12809 whole entry): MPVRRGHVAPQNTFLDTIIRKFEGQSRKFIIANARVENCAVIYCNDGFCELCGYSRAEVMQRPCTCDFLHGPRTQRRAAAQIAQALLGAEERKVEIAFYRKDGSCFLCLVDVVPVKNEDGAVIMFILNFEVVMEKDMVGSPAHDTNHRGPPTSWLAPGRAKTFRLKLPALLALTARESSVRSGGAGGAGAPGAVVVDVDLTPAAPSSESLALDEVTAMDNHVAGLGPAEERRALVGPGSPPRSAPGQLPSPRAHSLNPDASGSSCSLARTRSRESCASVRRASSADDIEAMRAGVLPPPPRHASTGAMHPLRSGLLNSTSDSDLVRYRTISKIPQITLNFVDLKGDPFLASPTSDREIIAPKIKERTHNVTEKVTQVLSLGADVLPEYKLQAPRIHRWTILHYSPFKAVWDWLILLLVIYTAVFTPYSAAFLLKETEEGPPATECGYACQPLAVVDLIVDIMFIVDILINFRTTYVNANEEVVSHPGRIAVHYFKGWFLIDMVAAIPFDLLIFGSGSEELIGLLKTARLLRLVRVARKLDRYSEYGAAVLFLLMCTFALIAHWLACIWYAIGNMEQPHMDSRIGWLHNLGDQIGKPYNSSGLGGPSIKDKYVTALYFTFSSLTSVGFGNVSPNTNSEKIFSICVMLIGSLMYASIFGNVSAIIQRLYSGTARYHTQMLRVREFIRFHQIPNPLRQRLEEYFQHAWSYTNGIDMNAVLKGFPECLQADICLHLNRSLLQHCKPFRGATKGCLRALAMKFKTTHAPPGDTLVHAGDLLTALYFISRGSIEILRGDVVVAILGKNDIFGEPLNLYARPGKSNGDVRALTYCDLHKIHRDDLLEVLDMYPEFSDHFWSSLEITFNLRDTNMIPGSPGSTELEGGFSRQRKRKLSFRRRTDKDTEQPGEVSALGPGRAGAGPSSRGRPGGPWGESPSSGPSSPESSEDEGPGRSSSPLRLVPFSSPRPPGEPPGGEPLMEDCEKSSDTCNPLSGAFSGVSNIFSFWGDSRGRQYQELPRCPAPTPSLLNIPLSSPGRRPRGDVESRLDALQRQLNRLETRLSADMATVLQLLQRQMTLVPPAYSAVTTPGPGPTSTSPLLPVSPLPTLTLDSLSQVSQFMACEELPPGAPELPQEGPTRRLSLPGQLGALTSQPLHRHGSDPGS
Method: Membranes were suspended in assay buffer (50 mM Tris, 10 mM KCl, 1 mM MgCl2, pH 7.4) prior to the experiment. […] Nonspecific binding was determined in the presence of amitriptyline (1 mM). Samples were incubated for 1 hr. at 24° C., followed by rapid filtration.

[10] = system: rat striatal slices; settings: cited from earlier work
[11] = system: METH self-administration; settings: in vivo; cited from earlier work
[12] = molecular target: dopamine transporter (DAT) (Rattus norvegicus, UniProt P23977); experiment: [3H]DA uptake assay, synaptosomal preparation
Chain of dopamine transporter (DAT) (P23977 whole entry): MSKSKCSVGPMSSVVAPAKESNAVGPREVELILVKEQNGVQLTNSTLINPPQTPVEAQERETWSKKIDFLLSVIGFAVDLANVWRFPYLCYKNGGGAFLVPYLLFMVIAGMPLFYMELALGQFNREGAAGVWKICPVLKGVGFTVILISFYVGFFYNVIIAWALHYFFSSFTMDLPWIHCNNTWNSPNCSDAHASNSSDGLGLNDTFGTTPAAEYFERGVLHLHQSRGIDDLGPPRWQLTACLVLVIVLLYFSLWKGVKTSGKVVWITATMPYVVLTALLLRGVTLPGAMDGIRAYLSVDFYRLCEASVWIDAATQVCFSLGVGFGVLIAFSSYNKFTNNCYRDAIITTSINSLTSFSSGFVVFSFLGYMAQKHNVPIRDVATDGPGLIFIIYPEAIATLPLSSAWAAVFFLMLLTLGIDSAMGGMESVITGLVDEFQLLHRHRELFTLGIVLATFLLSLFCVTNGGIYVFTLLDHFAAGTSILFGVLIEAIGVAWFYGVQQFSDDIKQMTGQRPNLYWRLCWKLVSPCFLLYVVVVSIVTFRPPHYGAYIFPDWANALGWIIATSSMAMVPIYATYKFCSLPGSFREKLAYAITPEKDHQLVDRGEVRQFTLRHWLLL
Method: [^3H]DA and [3H]5-HT uptake into striatal synaptosomes was determined to evaluate compound inhibition of the dopamine transporter (DAT) and the serotonin transporter (SERT), respectively. […] Assays were performed in duplicate in a total volume of 500 μL (for DAT assays) or 250 μL (for SERT assays). Aliquots of the synaptosomal suspension (25 μL for DAT, 50 μL for SERT) were added to tubes containing assay buffer and various concentrations of analog (1 nM-100 μM), and incubated at 34° C. for 5 min. Nonspecific uptake was determined in the presence of nomifensine (10 μM) for DAT assays or fluoxetine (10 μM) for SERT assays. […] Samples were placed on ice, and 50 μL of 0.1 μM [^3H]DA (for DAT assays) or 25 μL of 0.1 μM [^3H]5-HT (for SERT assays) was added to each tube, and incubated for 10 min at 34° C. Reactions were terminated by addition of 3 mL of ice-cold assay buffer and subsequent filtration and radioactivity retained by the filters was determined by liquid scintillation spectrometry (Tri-Carb 2100TR liquid scintillation analyzer; PerkinElmer Life and Analytical Sciences, Boston, MA).

[13] = in vivo; settings: male, Sprague-Dawley, rat
Method: as §3, §4, §5, §6, §7

[14] = female, Sprague-Dawley, 0.08 µM, pH 7.4
Method: as §1, §2

[15] = both, 0.08 µM, pH 7.4
Method: as §1, §2

[16] = [3H]dofetilide binding, HEK-293 membranes, mean of n>=3 unless N given
[17] = [3H]DA uptake, rat vesicular preparation, mean of n>=3 unless N given, read-out: VMAT2 (rat) Inhibition: Mean Ki
[18] = Table 4, mean, minimally n = 3, read-out: VMAT2 (rat) Inhibition: Mean Ki

Structure (SMILES) | Bioavail. (F %) Fmice [1] | Ki [3] | CLint scaled at 0.08 µM [2] | Ki ([9]; Table 4, mean, minimally n = 3) | Ki [12] | further results
CC(Cc1ccccc1)NCCCc1ccc(S)cc1 (stereo not drawn) [Compound 260] | Fmice: 0.9% |  |  |  |  | 
CC(Cc1ccc(F)cc1)NC(=O)CCc1ccc(C#N)cc1 (stereo not drawn) [Compound 294] |  | 40600 nM |  |  |  | half-life at 0.08 µM [2]: 48 min; half-life at 0.08 µM [4]: 48 min
CC(Cc1ccc(F)cc1)NC(=O)CCc1ccc([N+](=O)[O-])cc1 (stereo not drawn) [Compound 293] |  | 10800 nM |  |  |  | half-life at 0.08 µM [5]: 24 min; half-life at 0.08 µM [6]: 30 min
CC(Cc1ccccc1)NCCCc1ccc(S)cc1 (stereo not drawn) [Compound 216] | Fmice: 0.9% |  |  |  |  | Microsomal stability assays: Species/Half-life (hr) Rat ([2]; cell prints %): Rat: 0.3%
COc1ccc(CCCN[C@H](C)Cc2ccccc2)cc1.Cl [Compound 9] |  |  |  |  |  | METH-stimulated locomotor activity ([7]; 3 mg/kg): significant reduction
CC(Cc1ccccc1)NCCCc1ccc(N)cc1 (stereo not drawn) [Compound 220] | Fmice: quant; Frat: quant |  |  |  |  | Bioavail. (F %) Frat [8]: Fmice: quant; Frat: quant
CC(Cc1ccc(F)c(F)c1)NCCCc1ccc2nonc2c1 (stereo not drawn) [Compound 227] |  | 49 nM |  |  |  | Ki [9, 16]: 650 nM; Bioavail. (F %) ([8]; species not given): No detection
CN1[C@@H](CCc2ccccc2)CCC[C@H]1CCc1ccccc1 [Lobelane] |  |  |  |  |  | METH-evoked DA overflow [10]: decreases METH-evoked DA overflow; METH self-administration [11]: decreases METH self-administration
CC(Cc1ccc(F)c(F)c1)NCCCc1ccc(C(N)=O)cc1 (stereo not drawn) [Compound 231] |  |  | 23 mL/min/kg | 3500 nM | 2750 nM | Ki [3, 17]: 29 nM; Ki [9, 16]: 3500 nM; bioavailability ([8]; po, 10 mg/kg): 62%; bioavailability ([8]; sc): 84%; Bioavail. (F %) Frat [8]: Frat: 80%
CC(Cc1ccc(F)c(F)c1)NCCCc1ccc(NC(N)=O)cc1 (stereo not drawn) [Compound 229] |  | 36 nM | 41 mL/min/kg | 4290 nM | 1530 nM | bioavailability ([13]; po): 94%; Ki [9, 16]: 4290 nM; Bioavail. (F %) Frat [8]: Frat: 22%
CC(Cc1ccc(F)cc1)NCCCc1ccc(F)cc1 (stereo not drawn) [Compound 190] | Fmice: 5% | 9 nM |  |  |  | 
CC(Cc1ccc(C(F)(F)F)cc1)NCCCc1ccc(O)cc1 (stereo not drawn) [Compound 209] |  |  |  |  |  | Microsomal stability assays: Species/Half-life (hr) Rat [2]: 0.2 h; Microsomal stability assays: Species/Half-life (hr) Human [4]: 0.1 h
CC(Cc1ccccc1)NCCCc1ccncc1 (stereo not drawn) [Compound 204] | Fmice: 10% (prelim rat done) |  |  |  |  | 
CC(Cc1ccccc1)NCCCc1ccc(C(F)(F)F)cc1 (stereo not drawn) [Compound 194] | Fmice: 11.9% |  |  |  |  | 
O=[N+]([O-])c1ccc(CCCNC(CF)Cc2ccc(F)cc2)cc1 (stereo not drawn) [Compound 123] |  |  |  |  |  | Microsomal stability assays: Species/Half-life (hr) Rat [2]: 0.4 h; Ki [3, 17]: 44 nM; Microsomal stability assays: Species/Half-life (hr) Human [4]: 1.2 h
CC(Cc1ccc(F)cc1)NCCCc1ccncc1 (stereo not drawn) [Compound 176] | Fmice: ~22% (prelim rat done) |  |  |  |  | Ki [9, 16]: 5100 nM
CC(Cc1ccc(-c2cncnc2)cc1)NCCCc1ccc(F)cc1 (stereo not drawn) [Compound 196] | Fmice: 3.4% (prelim rat done) | 8 nM |  |  |  | 
CC(Cc1ccccc1)NCCCc1ccc(OC(F)(F)F)cc1 (stereo not drawn) [Compound 258] |  | 16 nM |  |  |  | half-life at 0.08 µM [4]: > 240 min; Ki [9, 16]: 90 nM
CC(Cc1ccc(F)c(F)c1)NCCCc1ccc2nc[nH]c2c1 (stereo not drawn) [Compound 228] |  | 41 nM | 48 mL/min/kg | 6770 nM | 3040 nM | Ki [9, 16]: 6770 nM; bioavailability ([8]; po, 10 mg/kg): 6%; Bioavail. (F %) Frat [8]: Frat: 5%
CC(Cc1cccc(F)c1)NCCCc1ccc(C(N)=O)cc1 (stereo not drawn) [Compound 309] |  |  | 57 mL/min/kg | 12000 nM | 1630 nM | Ki [3, 18]: 6 nM; bioavailability ([8]; po, 10 mg/kg): 5%; bioavailability ([8]; sc): 76%

Structure (SMILES) | Bioavail. (F %) Fmice [1] | Ki [3] | CLint scaled at 0.08 µM [2] | Ki ([9]; Table 4, mean, minimally n = 3) | Ki [12] | further results
COc1ccc(CCCN[C@@H](C)Cc2ccccc2)cc1.Cl [Compound 10, (S)-3-(4-methoxyphenyl)-N-(1-phenylpropan-2-yl)propan-1-amine] |  |  |  |  |  | METH-stimulated locomotor activity ([7]; 17 mg/kg): significant reduction
Fc1ccc(CCCNC(Cc2ccccc2)Cc2ccccc2)cc1 [Compound 292] |  | 346 nM |  |  |  | half-life at 0.08 µM [5]: 36 min; half-life at 0.08 µM [6]: < 6 min
CC(Cc1ccccc1)NCCCc1ccc(F)cc1 (stereo not drawn) [Compound 249] | Fmice: 2.0% | 6 nM |  |  |  | half-life at 0.08 µM [2]: 18 min; half-life at 0.08 µM [4]: 72 min; Ki [9, 16]: 3000 nM
CCC(Cc1ccccc1)NCCCc1ccc(O)cc1 (stereo not drawn) [Compound 207] |  |  |  |  |  | Microsomal stability assays: Species/Half-life (hr) Rat [2]: Rat: 0.1 hr Human: 0.1 hr; Microsomal stability assays: Species/Half-life (hr) Human [4]: Rat: 0.1 hr Human: 0.1 hr
CC(Cc1ccc(F)c(F)c1)NCCCc1cccc(NC(N)=O)c1 (stereo not drawn) [Compound 235] |  | 4 nM | 71 mL/min/kg | 4380 nM | 1290 nM | bioavailability ([13]; po): 8%; Ki [9, 16]: 4380 nM
OCC(Cc1ccc(F)cc1)NCCCc1ccc(Br)cc1 (stereo not drawn) [Compound 154] |  |  |  |  |  | Microsomal stability assays: Species/Half-life (hr) Rat [14]: 0.1 h
CC(Cc1ccc2nccnc2c1)NCCCc1ccc(C(N)=O)cc1 (stereo not drawn) [Compound 307] |  | 17 nM | 51 mL/min/kg | 21000 nM | 8890 nM | bioavailability ([13]; po): 8%; bioavailability ([13]; sc): > 100%
CC(Cc1ccc(-c2cccnc2)cc1)NCCCc1ccc(F)cc1 (stereo not drawn) [Compound 192] | Fmice: 6.7% |  |  |  |  | 
CC(Cc1ccncc1)NCCCc1ccc(F)cc1 (stereo not drawn) [Compound 187] | Fmice: 9.4% |  |  |  |  | half-life at 0.08 µM [4]: > 240 min
FCC(Cc1ccc(-c2cncnc2)cc1)NCCCc1ccc(F)cc1 (stereo not drawn) [Compound 68] |  | 5 nM |  |  |  | Microsomal stability assays: Species/Half-life (hr) Human [15]: 0.1 h
CC(Cc1ccc(F)cc1)NCCCc1ccc(C(N)=O)cc1 (stereo not drawn) [Compound 298] |  |  | 18 mL/min/kg | 12400 nM | 3980 nM | Ki [3, 18]: 16 nM
CC(Cc1ccc(F)c(F)c1)NCCCc1cccc(C(N)=O)c1 (stereo not drawn) [Compound 237] |  |  | 30 mL/min/kg | 4780 nM | 3120 nM | Ki [3, 17]: 32 nM; Ki [9, 16]: 4780 nM; bioavailability ([8]; po, 10 mg/kg): 2%
COc1ccc(CCCN[C@@H](C)Cc2ccccc2)cc1 [Compound 313] |  | 72 nM | 978 mL/min/kg | 4160 nM |  | half-life at 0.08 µM [2]: < 6 min; Bioavail. (F %) Frat ([8]; route not stated): Frat: 3.4%
CC(Cc1ccc(F)c(F)c1)NCCCc1ccc2nn[nH]c2c1 (stereo not drawn) [Compound 312] |  | 8 nM | 115 mL/min/kg | 3000 nM | 1900 nM | bioavailability ([8]; po, 10 mg/kg): 7%; bioavailability ([8]; sc): 42%
CC(Cc1cc(F)cc(F)c1)NCCCc1ccc(C(N)=O)cc1 (stereo not drawn) [Compound 300] |  |  | 21 mL/min/kg | 8100 nM | 1570 nM | Ki [3, 18]: 6 nM
CC(Cc1ccc(F)c(F)c1)NCCCc1ccc2cnoc2c1 (stereo not drawn) [Compound 311] |  | 51 nM | 117 mL/min/kg | 4200 nM | 2720 nM | 
CC(Cc1ccc(F)c(F)c1)NCCCc1ccc(S(N)(=O)=O)cc1 (stereo not drawn) [Compound 230] |  | 42 nM | < 17 mL/min/kg | 1030 nM | 8240 nM | bioavailability ([13]; po): 94%; bioavailability ([13]; sc): 44%; Ki [9, 16]: 1030 nM; Bioavail. (F %) Frat [8]: Frat: >100%
CC(Cc1ccc(NC(N)=O)cc1)NCCCc1ccc(F)cc1 (stereo not drawn) [Compound 302] |  | 34 nM | 30 mL/min/kg | 7110 nM | 3130 nM | 
CC(Cc1ccccc1)NCCCc1ccc(O)cc1 (stereo not drawn) [Compound 223] | Fmice: 8.9% |  |  |  |  | 
CC(Cc1ccc(F)cc1)NCCCc1ccc(CN)cc1 (stereo not drawn) [Compound 285] |  | 461 nM |  |  |  | half-life at 0.08 µM [2]: > 240 min; half-life at 0.08 µM [4]: > 240 min
